Experimental data published in patent publication US8865748B2, “Compounds and compositions for stabilizing hypoxia inducible factor-2 alpha as a method for treating cancer” (Akebia Therapeutics Inc., priority 2011, dated 2014).

What was measured:
sVEGFR-1 = sVEGFR-1 transcription in bone marrow-derived macrophages from LysMcre control and HIF-2α^flox/flox/LysMcre mice; type: cell-based; conditions: FIG. 11F
Text: HIF-2α^flox/flox mice (originally developed by Dr. Celeste Simon, University of Pennsylvania) and LysMcre recombinase mice (originally developed by Irmgard Foerster, University of Duesseldorf) (both purchased from The Jackson Laboratory, Bar Harbor, Me.) were crossed to generate mice homozygous for both LysMcre and the floxed HIF-2α allele. LysMcre recombinase mice, which express no floxed alleles, were used as controls. Deletion of HIF-2α in HIF-2α^flox/flox/LysMcre macrophages, but not the LysMcre control macrophages, was confirmed at the transcript level by real-time PCR.
To generate bone marrow-derived macrophages (BDMs), femoral bone marrow was isolated and progenitor cells were plated in RPMI-1640 supplemented with 10% FBS, 1% PSA, 10 μg/mL of polymyxin B, and 20 ng/mL of recombinant murine M-CSF. Cells were cultured for 5 days with the addition of fresh M-CSF every other day. […]
Human monocytes were left untreated or were stimulated with 100 ng/mL GM-CSF at normoxia or at 0.5% O2. […] Data were analyzed according to the comparative threshold method and normalized against the β-actin internal control transcript. Results are semi-quantitative and represent the fold difference in transcript levels in a particular sample as compared with levels in untreated cells from the same donor. […]

HIF-2α = test: Immunoblot for HIF-2α in murine bone marrow-derived macrophages; type: cell-based; conditions: treated for 18 hours, FIG. 11A
Procedure: To generate bone marrow-derived macrophages (BDMs), femoral bone marrow was isolated and progenitor cells were plated in RPMI-1640 supplemented with 10% FBS, 1% PSA, 10 μg/mL of polymyxin B, and 20 ng/mL of recombinant murine M-CSF. Cells were cultured for 5 days with the addition of fresh M-CSF every other day. Differentiated BDM were serum-starved for 2 hours and then treated with 100 ng/mL of murine GM-CSF and/or 25 μM the disclosed HIF-2α stabilizer in RPMI-1640 containing 1% FBS and 10 μg/mL polymixin B. Culture supernatants were collected after 72 hours and assayed for VEGF and sVEGFR-1 content by ELISA (R&D Systems).
In order to confirm the selective upregulation of HIF-2α by the disclosed HIF-2α stabilizer, murine bone marrow-derived macrophages were treated with the disclosed HIF-2α stabilizer for 18 hours, and cells were then lysed and immunoblotted for HIF-1α and HIF-2α.

Pmel17 mRNA = test: Evaluation of lung metastases (Pmel17 mRNA, nested PCR) in B16F10 tumor-bearing mice; type: in vivo; conditions: FIG. 5; stabilizer I.P., GM-CSF I.T.; vs. vehicle control
Procedure: Lung metastases were evaluated by detection of mRNA for melanocyte-specific proteins within the lungs of tumor-bearing mice. B16F10 tumor-bearing mice were treated with GM-CSF and/or the disclosed HIF-2α stabilizer, as depicted in FIG. 3. At the time of sacrifice, lungs were excised and flash-frozen in liquid nitrogen. Frozen lungs were homogenized in liquid nitrogen and the pulverized material was dissolved in TRIzol™ reagent (Invitrogen). […] The melanocyte-specific Pmel17 was detected by nested PCR using a modification of the protocol described by Tsukamoto et al. For the initial reaction, 30 cycles of PCR were carried out (95° C. for 1 minute, 58° C. for 1 min, 72° C. for 1 min) in a 20 μL reaction volume containing 2 μL of cDNA. […] Data were analyzed according to the comparative threshold method and normalized against the GAPDH internal control transcript. Results are semi-quantitative and represent the fold difference in transcript levels in vehicle-treated control mice as compared with levels in mice treated with the disclosed HIF-2α stabilizer and/or GM-CSF.
Lung metastases were evaluated by detection of mRNA for melanocyte-specific proteins within the lungs of tumor-bearing mice. […] Data were analyzed according to the comparative threshold method and normalized against the β-actin internal control transcript. […]

Structure (SMILES): O=C(O)CNC(=O)c1ncc(-c2cccc(F)c2)cc1O [disclosed HIF-2α stabilizer, {[5-(3-Fluorophenyl)-3-hydroxypyridine-2-carbonyl]amino}acetic acid]
- sVEGFR-1 transcription (sVEGFR-1; HIF-2α-deficient macrophages, p=0.881): not
- sVEGFR-1 transcription (sVEGFR-1; control macrophages, p=0.036): induced
- HIF-2α protein (HIF-2α): increase
- relative metastasis to the lung as measured by Pmel17 mRNA expression (Pmel17 mRNA): reduced metastasis
